Measured values reported in patent US20210299034A1, “A Topical Composition” (Conopco, Inc., d/b/a UNILEVER, priority 2018, published 2021).

Tested on: Human primary melanocytes
Assay: Melanin content assay in α-MSH-stimulated melanocytes
Type: cell-based
Conditions: for Melanin Content (%) Average ± SD: 72 h, untreated control (A) = 100
Description: Human primary melanocytes were grown in melanocytes growth medium (MGM) with human melanocyte growth supplement. 500 μL/well (5×10^4 cells/well) of this solution was plated in a 24 wells plate and incubated in an incubator (Thermo Scientific, Model 3111) at 37° C. with 5% CO2 atmosphere.
After 24 h of incubation, cell cultures were treated with the test actives (as outlined in table 1) dissolved in 20% ethanol. After 1 h of actives addition, 10 nM of α-MSH was added. The cells were again incubated for 72 h in an incubator. At the end of this incubation period, the culture medium was replaced with 120 μL/well of melanin content assay reagent (10% Dimethyl sulfoxide in 1 N sodium hydroxide) and incubated for 1 h at 60° C. in a shaker incubator. The supernatant was then transferred to a 384 well plate. The absorbance was measured at 405 nm with a microtiter plate reader (Genios Pro, Tecan M 1000).
In the first set of experiments, human primary melanocytes were subjected to treatments as outlined in table 1 below.

Compound	Melanin Content (%) Average ± SD (4-ER 50 μM, 10 nM α-MSH added 1 h after active, absorbance 405 nm)	Melanin content, comparison in words (10 nM MSH, example 1 vs black tea (example D), example B vs untreated control (example A))	Melanin Content (%) Average ± SD (MSH 10 nM alone, no test active)
CCc1ccc(O)cc1O [C, 4-ethyl resorcinol]	68 ± 12.7%		
α-Melanocyte stimulating hormone [B]		over and above the control cells	121 ± 9.7%
